Source: ChEMBL document CHEMBL1240351, “Molecular epidemiology of metallo-beta-lactamase-producing Pseudomonas aeruginosa isolates from Norway and Sweden shows import of international clones and local clonal expansion” (2010)
Converted amounts (≈) assume the structure as drawn.

Columns and labels:
Type in all cases: functional
Pseudomonas aeruginosa [1] = test: Antimicrobial activity against Pseudomonas aeruginosa isolate PA66 producing metallo-beta-lactamase VIM4 by Etest
Pseudomonas aeruginosa [2] = test: Antimicrobial activity against Pseudomonas aeruginosa isolate U9-19005 producing metallo-beta-lactamase VIM2 by Etest
Pseudomonas aeruginosa [3] = test: Antimicrobial activity against Pseudomonas aeruginosa isolate K44-24 producing metallo-beta-lactamase IMP14 by Etest
Pseudomonas aeruginosa [4] = test: Antimicrobial activity against Pseudomonas aeruginosa isolate K34-7 producing metallo-beta-lactamase VIM2 by Etest
Pseudomonas aeruginosa [5] = test: Antimicrobial activity against Pseudomonas aeruginosa isolate BU-20287 producing metallo-beta-lactamase VIM2 by Etest
Pseudomonas aeruginosa [6] = test: Antimicrobial activity against Pseudomonas aeruginosa isolate K34-73 producing metallo-beta-lactamase VIM4 by Etest
Pseudomonas aeruginosa [7] = test: Antimicrobial activity against Pseudomonas aeruginosa isolate OS-210 producing metallo-beta-lactamase VIM2 by Etest
Pseudomonas aeruginosa [8] = test: Antimicrobial activity against Pseudomonas aeruginosa isolate BNL-1681 producing metallo-beta-lactamase VIM2 by Etest
Pseudomonas aeruginosa [9] = test: Antimicrobial activity against Pseudomonas aeruginosa isolate K45-32 producing metallo-beta-lactamase VIM2 by Etest
Pseudomonas aeruginosa [10] = test: Antimicrobial activity against Pseudomonas aeruginosa isolate B4-25753 producing metallo-beta-lactamase VIM2 by Etest
Pseudomonas aeruginosa [11] = test: Antimicrobial activity against Pseudomonas aeruginosa isolate BU-43038 producing metallo-beta-lactamase VIM2 by Etest
Pseudomonas aeruginosa [12] = test: Antimicrobial activity against Pseudomonas aeruginosa isolate AK5493 producing metallo-beta-lactamase VIM2 by Etest
Pseudomonas aeruginosa [13] = test: Antimicrobial activity against Pseudomonas aeruginosa isolate BU-36178 producing metallo-beta-lactamase VIM2 by Etest

SMILES | MIC (Pseudomonas aeruginosa [1]) | MIC (Pseudomonas aeruginosa [2]) | MIC (Pseudomonas aeruginosa [3]) | MIC (Pseudomonas aeruginosa [4]) | MIC (Pseudomonas aeruginosa [5]) | MIC (Pseudomonas aeruginosa [6]) | MIC (Pseudomonas aeruginosa [7]) | MIC (Pseudomonas aeruginosa [8]) | MIC (Pseudomonas aeruginosa [9]) | MIC (Pseudomonas aeruginosa [10]) | MIC (Pseudomonas aeruginosa [11]) | MIC (Pseudomonas aeruginosa [12]) | MIC (Pseudomonas aeruginosa [13])
NCC[C@H](O)C(=O)N[C@@H]1C[C@H](N)[C@@H](O[C@H]2O[C@H](CN)[C@@H](O)[C@H](O)[C@H]2O)[C@H](O)[C@H]1O[C@H]1O[C@H](CO)[C@@H](O)[C@H](N)[C@H]1O [AMIKACIN] | 32 µg/mL (≈ 54.6 µM) | 32 µg/mL (≈ 54.6 µM) | 32 µg/mL (≈ 54.6 µM) | 32 µg/mL (≈ 54.6 µM) | 32 µg/mL (≈ 54.6 µM) | 32 µg/mL (≈ 54.6 µM) | 32 µg/mL (≈ 54.6 µM) | 32 µg/mL (≈ 54.6 µM) | 32 µg/mL (≈ 54.6 µM) | 32 µg/mL (≈ 54.6 µM) | 32 µg/mL (≈ 54.6 µM) | 32 µg/mL (≈ 54.6 µM) | 32 µg/mL (≈ 54.6 µM)
O=C(O)C1=CC[C@@H]2CC(=O)N12 [CARBAPENEM] | > 32 µg/mL | > 32 µg/mL | > 32 µg/mL | > 32 µg/mL | > 32 µg/mL | > 32 µg/mL | > 32 µg/mL | > 32 µg/mL | > 32 µg/mL | > 32 µg/mL | > 32 µg/mL | > 32 µg/mL | > 32 µg/mL
CO/N=C(\C(=O)N[C@@H]1C(=O)N2C(C(=O)[O-])=C(C[N+]3(C)CCCC3)CS[C@H]12)c1csc(N)n1 [CEFEPIME] | 32 µg/mL (≈ 66.6 µM) | 32 µg/mL (≈ 66.6 µM) | 32 µg/mL (≈ 66.6 µM) | 32 µg/mL (≈ 66.6 µM) | 32 µg/mL (≈ 66.6 µM) | 32 µg/mL (≈ 66.6 µM) | 32 µg/mL (≈ 66.6 µM) | 32 µg/mL (≈ 66.6 µM) | 32 µg/mL (≈ 66.6 µM) | 32 µg/mL (≈ 66.6 µM) | 32 µg/mL (≈ 66.6 µM) | 32 µg/mL (≈ 66.6 µM) | 32 µg/mL (≈ 66.6 µM)
CC(C)(O/N=C(\C(=O)N[C@@H]1C(=O)N2C(C(=O)[O-])=C(C[n+]3ccccc3)CS[C@H]12)c1csc(N)n1)C(=O)O [CEFTAZIDIME] | 64 µg/mL (≈ 117 µM) | 64 µg/mL (≈ 117 µM) | 64 µg/mL (≈ 117 µM) | 64 µg/mL (≈ 117 µM) | 64 µg/mL (≈ 117 µM) | 64 µg/mL (≈ 117 µM) | 64 µg/mL (≈ 117 µM) | 64 µg/mL (≈ 117 µM) | 64 µg/mL (≈ 117 µM) | 64 µg/mL (≈ 117 µM) | 64 µg/mL (≈ 117 µM) | 64 µg/mL (≈ 117 µM) | 64 µg/mL (≈ 117 µM)
O=C(O)c1cn(C2CC2)c2cc(N3CCNCC3)c(F)cc2c1=O [CIPROFLOXACIN] | 16 µg/mL (≈ 48.3 µM) | 16 µg/mL (≈ 48.3 µM) | 16 µg/mL (≈ 48.3 µM) | 16 µg/mL (≈ 48.3 µM) | 16 µg/mL (≈ 48.3 µM) | 16 µg/mL (≈ 48.3 µM) | 16 µg/mL (≈ 48.3 µM) | 16 µg/mL (≈ 48.3 µM) | 16 µg/mL (≈ 48.3 µM) | 16 µg/mL (≈ 48.3 µM) | 16 µg/mL (≈ 48.3 µM) | 16 µg/mL (≈ 48.3 µM) | 16 µg/mL (≈ 48.3 µM)
NC[C@H]1O[C@H](O[C@H]2[C@H](O)[C@@H](O[C@H]3O[C@H](CO)[C@@H](O)[C@H](N)[C@H]3O)[C@H](N)C[C@@H]2N)[C@H](N)C[C@@H]1O [TOBRAMYCIN] | 32 µg/mL (≈ 68.4 µM) | 32 µg/mL (≈ 68.4 µM) | 32 µg/mL (≈ 68.4 µM) | 32 µg/mL (≈ 68.4 µM) | 32 µg/mL (≈ 68.4 µM) | 32 µg/mL (≈ 68.4 µM) | 32 µg/mL (≈ 68.4 µM) | 32 µg/mL (≈ 68.4 µM) | 32 µg/mL (≈ 68.4 µM) | 32 µg/mL (≈ 68.4 µM) | 32 µg/mL (≈ 68.4 µM) | 32 µg/mL (≈ 68.4 µM) | 32 µg/mL (≈ 68.4 µM)
